Data taken from patent US7750184B2, “Vitamin D receptor modulators” (Eli Lilly and Company, priority 2003, dated 2010).

Experiments:
VDR = target: T1, VDR (Homo sapiens, UniProt P11473); test: Caco-2 cell co-transfection assay (VDR CTF); type: cell-based; settings: Caco-2 cells, pGal4-VDR-LBD co-transfection, luciferase reporter
T1 construct: the receptor expression vector pGal4-VDR-LBD (10 ng); expressed in transfected cells; host or cells: Caco-2 cells
T1 sequence (P11473 127-423 limits assumed): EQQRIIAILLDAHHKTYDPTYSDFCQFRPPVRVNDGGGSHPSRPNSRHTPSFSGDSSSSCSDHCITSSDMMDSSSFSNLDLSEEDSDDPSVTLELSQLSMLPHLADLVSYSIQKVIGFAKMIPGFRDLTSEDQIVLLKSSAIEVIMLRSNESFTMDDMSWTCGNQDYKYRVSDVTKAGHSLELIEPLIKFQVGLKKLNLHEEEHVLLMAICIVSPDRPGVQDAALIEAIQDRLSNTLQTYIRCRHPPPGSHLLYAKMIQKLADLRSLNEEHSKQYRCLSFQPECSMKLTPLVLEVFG
Procedure: 2. The Caco-2 Cell Co-Transfection Assay:
The Caco-2 cell assay is an indicator for the undesirable condition of hypercalcemia. This co-transfection assay is a surrogate assay for in vivo calcemic activity of VDR ligands. […] Preferred assay results are greater than 1000 nM.
(2) Materials and Method for The Caco-2 Cell Assay:
Caco-2 cells, grown in phenol red free, DMEM (Invitrogen, Carlsbad, Calif.) containing 10% charcoal-stripped FCS (Hyclone, Logan, Utah), were transfected with Fugene 6 reagent (Roche Diagnostics, Indianapolis, Ind.). Cells (5000/well) were plated 18 h before transfection in a 96 well plate. The Cells were transfected with Gal4-responsive reporter pFRLuc (150 ng, Stratagene, La Jolla Calif.) and the receptor expression vector pGal4-VDR-LBD (10 ng), along with Fugene 6 reagent (0.2 μl/well). The DNA-Fugene complex was formed by incubating the mixture for 30 min at room temperature. The cells were transfected in triplicate for 5 h, and treated with various concentrations of VDR ligands (form 0.01 nM to 10,000 nM concentration range) 18 h post-transfection. The luciferase activity was quantified using Steady-Glo reagent kit (Promega, Madison, Wis.) as per manufacturer's specifications.

rat osteocalcin promoter = test: OCN (osteocalcin) promoter assay; type: cell-based; settings: RG-15 (ROS 17/2.8) cells, 48 hr treatment, luciferase reporter
Procedure: 3. The OCN (osteocalcin) Promoter Assay
The OCN Promoter Assay is an indicator and marker for osteoporosis. […] Preferred assay results are less than 50 nM.
(3) Materials and Method for the OCN Promoter Assay:
The activation of osteocalcin by VDR ligands was evaluated in a rat osteoblast-like cell line RG-15 (ROS 17/2.8) stably expressing rat osteocalcin promoter fused with luciferase reporter gene. […] Confluent RG-15 cells maintained in DMEM/F-12 medium (3:1) containing 5% FBS, 300 μg/ml G418 and at 37° C. under 5% CO2/95% air atmosphere were trypsinized (0.25% trypsin) and plated into white opaque 96-well cell culture plates (25000 cells/well). After 24 hr, cells (in DMEM/F-12 medium+2% FBS) were treated with various concentrations of compounds, dissolved in DMSO. The final DMSO concentration remained at 0.01% (v/v). After 48 hr treatment, the medium was removed, cells were lysed with 50 μl of lysis buffer (From Luciferase reporter assay system, Roche Diagnostics, Indianapolis, Ind.) and assayed for luciferase activity using the Luciferase Reporter Gene Assay kit from Boehringer Mannheim as per manufacturer's specifications.

[1] = Mouse hypercalcemia assay; settings: oral gavage for 6 days, serum ionized calcium 6 hours after last dosing
Procedure: The Mouse Hypercalcemia Assay is a six day hypercalcemia test for toxicity and selectivity. Acceptable test results are levels greater than 300 μg/kg/day. Preferred assay results are levels greater than 1000 μg/day.
(4) Materials and Method for the Mouse Hypercalcemia Assay:
Weanling, virus—antibody-free, five to six weeks old female DBF mice (Harlan, Indianapolis, Ind.) are used for all the studies. Animals are allowed to acclimate to local vivarium conditions for 2 days. […] The animals then are divided into groups with 4-5 mice per group. Different doses of test compounds prepared in 10% Ethanol and 90% sesame oil are administered to mice orally via gavage for 6 days. 1α-25(OH)2D3 0.5 μg/kg/d was also given to one group of mice as the positive control. […] Raw data of group differences is assessed by analysis of variance (ANOVA) using Fisher's protected least significant difference (PLSD) where the significance level was P<0.05.

Compound | EC50 (VDR) [nM] | EC50 (rat osteocalcin promoter) [µM] | Mouse Hypercal [1] [µg/kg/day] | EC50 (rat osteocalcin promoter; Rattus norvegicus, 48 h) [µM]
CCC(CC)(c1ccc(OC[C@H](O)C(C)(C)C)c(C)c1)c1ccc(OS(C)(=O)=O)c(C)c1 (single isomer, unassigned) [Ex. 2, 3′-[4-(2-hydroxy-3,3-dimethylbutoxy)-3-methylphenyl]-3′-[4-(methanesulfonyloxy)-3-methylphenyl]pentane] | 46.5 | 0.0051 | 50 | –
CCC(CC)(c1ccc(OC[C@H](O)C(C)(C)C)c(C)c1)c1ccc(OS(C)(=O)=O)c(C)c1 (single isomer, unassigned) [Ex. 3, 3′-[4-(2-hydroxy-3,3-dimethylbutoxy)-3-methylphenyl]-3′-[4-(methanesulfonyloxy)-3-methylphenyl]pentane] | 133 | 0.0163 | 50 | –
CCC(CC)(c1ccc(OCC(O)C(C)(C)C)c(C)c1)c1ccc(N(C)S(C)(=O)=O)c(C)c1 (single isomer, unassigned) [Ex. 20, N-(4-{1-ethyl-1-[4-(2-hydroxy-3,3-dimethyl-butoxy)-3-methyl-phenyl]-propyl}-2-methyl-phenyl)-N-methyl-methanesulfonamide] | – | 0.0281 | 500 | –
CCC(CC)(c1ccc(OCC(O)CO)c(C)c1)c1ccc(OCC(O)C(C)(C)C)c(C)c1 (centres unmarked) [BB, 3-(4-{1-Ethyl-1-[4-(2-hydroxy-3,3-dimethyl-butoxy)-3-methyl-phenyl]-propyl}-2-methyl-phenoxy)-propane-1,2-diol, reference compound] | – | – | 20 | 0.011
CCC(CC)(c1ccc(OCC(=O)C(C)(C)C)c(C)c1)c1ccc(OS(C)(=O)=O)c(C)c1 [Ex. 4, 3′-[4-(2-oxo-3,3-dimethylbutoxy)-3-methylphenyl]-3′-[4-(methanesulfonyloxy)-3-methylphenyl]pentane] | 164 | – | – | 0.00091
CCC(CC)(c1ccc(OCC(=O)C(C)(C)C)c(C)c1)c1ccc(OS(=O)(=O)CC)c(C)c1 [Ex. 8, 3′-[4-(2-oxo-3,3-dimethylbutoxy)-3-methylphenyl]-3′-[4-(ethanesulfonyloxy)-3-methylphenyl]pentane] | 34.8 | – | – | 0.00348
CCC(CC)(c1ccc(OCC(O)C(C)(C)C)c(C)c1)c1ccc(OS(=O)(=O)CC)c(C)c1 (centres unmarked) [Ex. 9, 3′-[4-(2-hydroxy-3,3-dimethylbutoxy)-3-methylphenyl]-3′-[4-(ethanesulfonyloxy)-3-methylphenyl]pentane] | 13 | – | – | –
CCC(CC)(c1ccc(OCC(C)(O)C(C)(C)C)c(C)c1)c1ccc(OS(=O)(=O)CC)c(C)c1 (centres unmarked) [Ex. 10, 3′-[4-(2-hydroxy-2-methyl-3,3-dimethylbutoxy)-3-methylphenyl]-3′-[4-(ethanesulfonyloxy)-3-methylphenyl]pentane] | 15 | – | – | 0.0003
CCC(CC)(c1ccc(NS(C)(=O)=O)c(C)c1)c1ccc(OCC(O)C(C)(C)C)c(C)c1 (centres unmarked) [Ex. 12, 3′-[4-(2-Hydroxy-3,3-dimethylbutoxy)-3-methylphenyl]-3′-[4-(methanesulfonylamino)-3-methylphenyl]pentane] | 112 | – | – | 0.00233
CCC(CC)(c1ccc(OCC(O)C(C)(C)C)c(C)c1)c1ccc(N(C)S(C)(=O)=O)c(C)c1 (centres unmarked) [Ex. 19, N-(4-{1-Ethyl-1-[4-(2-hydroxy-3,3-dimethyl-butoxy)-3-methyl-phenyl]-propyl}-2-methyl-phenyl)-N-methyl-methanesulfonamide] | – | – | – | 0.0168
CCC(CC)(c1ccc(OCC(=O)C(C)(C)C)c(C)c1)c1ccc(N(S(=O)(=O)CC)S(=O)(=O)CC)c(C)c1 [Ex. 22, N-(4-{1-[4-(3,3-dimethyl-2-oxo-butoxy)-3-methyl-phenyl]-1-ethyl-propyl}-2-methyl-phenyl)-N,N-bis-ethanesulfonamide] | – | – | 500 | 0.0298
CCC(CC)(c1ccc(OCC(=O)C(C)(C)C)c(C)c1)c1ccc(N(C)S(=O)(=O)CC)c(C)c1 [Ex. 24, N-(4-{1-[4-(3,3-Dimethyl-2-oxo-butoxy)-3-methyl-phenyl]-1-ethyl-propyl}-2-methyl-phenyl)-N-methyl-ethanesulfonamide] | – | – | <1000 | 0.0447
CCC(CC)(c1ccc(NS(=O)(=O)C(F)(F)F)c(C)c1)c1ccc(OCC(=O)C(C)(C)C)c(C)c1 [Ex. 27, N-(4-{1-[4-(3,3-Dimethyl-2-oxo-butoxy)-3-methyl-phenyl]-1-ethyl-propyl}-2-methyl-phenyl)-trifluoromethanesulfonamide] | – | – | 500 | 0.0106
CCC(CC)(c1ccc(OCC(=O)C(C)(C)C)c(C)c1)c1ccc(N(S(=O)(=O)CC(F)(F)F)S(=O)(=O)CC(F)(F)F)c(C)c1 [Ex. 28, N-(4-{1-[4-(3,3-Dimethyl-2-oxo-butoxy)-3-methyl-phenyl]-1-ethyl-propyl}-2-methyl-phenyl)-N,N-bis-2,2,2-trifluoro-ethanesulfonamide] | – | – | 1000 | 0.0179
CCC(CC)(c1ccc(NS(=O)(=O)CC(F)(F)F)c(C)c1)c1ccc(OCC(=O)C(C)(C)C)c(C)c1 [Ex. 29, N-(4-{1-[4-(3,3-Dimethyl-2-oxo-butoxy)-3-methyl-phenyl]-1-ethyl-propyl}-2-methyl-phenyl)-2,2,2-trifluoro-ethanesulfonamide] | – | – | 100 | 0.00458
CCC(CC)(c1ccc(OCC(=O)C(C)(C)C)c(C)c1)c1ccc(N(CCSC)S(C)(=O)=O)c(C)c1 [Ex. 30, N-(4-{1-[4-(3,3-Dimethyl-2-oxo-butoxy)-3-methyl-phenyl]-1-ethyl-propyl}-2-methyl-phenyl)-N-(2-methylsulfanyl-ethyl)-methanesulfonamide] | – | – | – | 0.104
CCSCCS(=O)(=O)Nc1ccc(C(CC)(CC)c2ccc(OCC(=O)C(C)(C)C)c(C)c2)cc1C [Ex. 31, N-(4-{1-[4-(3,3-Dimethyl-2-oxo-butoxy)-3-methyl-phenyl]-1-ethyl-propyl}-2-methyl-phenyl)-2-ethylsulfanyl-ethanesulfonamide] | – | – | – | 0.044
CCC(CC)(c1ccc(NS(=O)(=O)CCS(=O)(=O)CC)c(C)c1)c1ccc(OCC(=O)C(C)(C)C)c(C)c1 [Ex. 32, N-(4-{1-[4-(3,3-Dimethyl-2-oxo-butoxy)-3-methyl-phenyl]-1-ethyl-propyl}-2-methyl-phenyl)-2-ethanesulfonyl-ethanesulfonamide] | – | – | – | 0.24
CCC(CC)(c1ccc(NS(=O)(=O)CCSC(C)C)c(C)c1)c1ccc(OCC(=O)C(C)(C)C)c(C)c1 [Ex. 33, N-(4-{1-[4-(3,3-Dimethyl-2-oxo-butoxy)-3-methyl-phenyl]-1-ethyl-propyl}-2-methyl-phenyl)-2-isopropylsulfanyl-ethanesulfonamide] | – | – | – | 0.0494
CCC(CC)(c1ccc(NS(=O)(=O)CCS(=O)(=O)C(C)C)c(C)c1)c1ccc(OCC(=O)C(C)(C)C)c(C)c1 [Ex. 34, N-(4-{1-[4-(3,3-Dimethyl-2-oxo-butoxy)-3-methyl-phenyl]-1-ethyl-propyl}-2-methyl-phenyl)-2-(propane-2-sulfonyl)-ethanesulfonamide] | – | – | – | 0.374
CCC(CC)(c1ccc(OCC(O)C(C)(C)C)cc1)c1ccc(OS(C)(=O)=O)c(C)c1 (centres unmarked) [Ex. 37, 3′-[4-(2-hydroxy-3,3-dimethylbutoxy)-phenyl]-3′-[4-methylsulfonyloxy-3-methylphenyl]pentane] | 308 | – | – | 0.0672
CCC(CC)(c1ccc(OS(C)(=O)=O)cc1)c1ccc(OCC(=O)C(C)(C)C)c(C)c1 [Ex. 38, 3′-[4-(2-oxo-3,3-dimethylbutoxy)-3-methylphenyl]-3′-[4-methylsulfonyloxy-phenyl]pentane] | – | – | <300 | 0.00209
CCC(CC)(c1ccc(OCC(=O)C(C)(C)C)cc1)c1cc(C)c(OS(C)(=O)=O)c(C)c1 [Ex. 41, 3′-[4-(2-oxo-3,3-dimethylbutoxy)-phenyl]-3′-[3,5-dimethyl-4-methylsulfonyloxy-phenyl]pentane] | 614 | – | – | 0.111
